Test results published in patent US20250290117A1, “MOLECULAR PHENOTYPIC ANTIMICROBIAL SUSCEPTIBILITY TESTING” (priority 2024, published 2025).

Experiments:
Assay type in all cases: cell-based
[1] = tested on: pathogens of clinical samples; assay: Molecular phenotypic antimicrobial susceptibility test of clinical samples, direct PCR without a separate DNA purification step (Table 6)
Method in brief: (§1)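 Semi-quantitative PCR measures growth after exposure, so sensitivity means prevented growth and resistance means allowed growth. Exposure lasts 12-16 hours at single or multiple breakpoint concentrations in Mueller Hinton Broth, with the inoculum at 0.5 McFarland.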

Escherichia coli = assay: Traditional culture-based antimicrobial susceptibility test
Method in brief: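 E. coli isolates underwent conventional growth, isolation and exposure to antimicrobials, giving a culture-based susceptibility call for each agent.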

[2] = tested on: pathogens of clinical samples; assay: Molecular phenotypic antimicrobial susceptibility test of clinical samples, extraction DNA purification step prior to PCR (Table 6)
Method in brief: as §1

[3] = E. coli, clinical sample of r10-r24
[4] = E. coli, clinical sample of r10-r24, Ct control avg 12.97
[5] = E. coli, clinical sample of r158-r172
[6] = E. coli, clinical sample of r158-r172, Ct control avg 12.894
[7] = K. aerogenes, clinical sample of r136-r150
[8] = K. aerogenes, clinical sample of r136-r150, Ct control avg 13.854
[9] = K. pneumoniae, clinical sample of r121-r135
[10] = K. pneumoniae, clinical sample of r121-r135, Ct control avg […]
[11] = M. morganii, clinical sample of r55-r69
[12] = M. morganii, clinical sample of r55-r69, Ct control avg 12.09
[13] = M. morganii, clinical sample of r70-r84
[14] = M. morganii, clinical sample of r70-r84, Ct control avg 11.677
[15] = P. mirabilis, clinical sample of r25-r39
[16] = P. mirabilis, clinical sample of r25-r39, Ct control avg 11.801
[17] = P. mirabilis, clinical sample of r40-r54
[18] = P. mirabilis, clinical sample of r40-r54, Ct control avg 10.06
[19] = E. coli, clinical sample of r10-r24, Ct Control Avg 18.112
[20] = E. coli, clinical sample of r158-r172, Ct Control Avg 20.146
[21] = K. aerogenes, clinical sample of r136-r150, Ct Control Avg 19.994
[22] = K. pneumoniae, clinical sample of r121-r135, Ct Control Avg 24.272
[23] = M. morganii, clinical sample of r55-r69, Ct Control Avg 28.86
[24] = M. morganii, clinical sample of r70-r84, Ct Control Avg 27.053
[25] = P. mirabilis, clinical sample of r25-r39, Ct Control Avg 26.064
[26] = P. mirabilis, clinical sample of r40-r54, Ct Control Avg 26.987

Row | Molecule | Molecular Antibiotic Susceptibility Result [1, 3] | Ct [1, 4] | Molecular Antibiotic Susceptibility Result [1, 5] | Ct [1, 6] | Molecular Antibiotic Susceptibility Result [1, 7] | Ct [1, 8] | Molecular Antibiotic Susceptibility Result [1, 9] | Ct [1, 10] | Molecular Antibiotic Susceptibility Result [1, 11] | Ct [1, 12] | Molecular Antibiotic Susceptibility Result [1, 13] | Ct [1, 14] | Molecular Antibiotic Susceptibility Result [1, 15] | Ct [1, 16] | Molecular Antibiotic Susceptibility Result [1, 17] | Ct [1, 18] | Traditional Culture Result (Escherichia coli; E. coli isolate 1 (Table 3)) | Traditional Culture Result (Escherichia coli; E. coli isolate 2 (Table 3)) | Traditional Culture Result (Escherichia coli; E. coli isolate 3 (Table 3)) | Traditional Culture Result (Escherichia coli; E. coli isolate JJ1887) | further results
1 | C[C@@H](O)[C@H]1C(=O)N2C(C(=O)O)=C(S[C@@H]3CN[C@H](C(=O)N(C)C)C3)[C@H](C)[C@H]12 [Meropenem] | Sensitive (Antimicrobial wells with pathogen load detected below the control wells (typically >2 cycle thresholds later) may be reported as Sensitive) | 24.598 | Sensitive (Antimicrobial wells with pathogen load detected below the control wells (typically >2 cycle thresholds later) may be reported as Sensitive) | 30.093 | Sensitive (Antimicrobial wells with pathogen load detected below the control wells (typically >2 cycle thresholds later) may be reported as Sensitive) | 28.604 | Sensitive (Antimicrobial wells with pathogen load detected below the control wells (typically >2 cycle thresholds later) may be reported as Sensitive) | 26.606 | Sensitive (Antimicrobial wells with pathogen load detected below the control wells (typically >2 cycle thresholds later) may be reported as Sensitive) | 30.024 | Sensitive (Antimicrobial wells with pathogen load detected below the control wells (typically >2 cycle thresholds later) may be reported as Sensitive) | 29.381 | Sensitive (Antimicrobial wells with pathogen load detected below the control wells (typically >2 cycle thresholds later) may be reported as Sensitive) | 32.513 | Sensitive (Antimicrobial wells with pathogen load detected below the control wells (typically >2 cycle thresholds later) may be reported as Sensitive) | 31.805 | Sensitive | Sensitive | Sensitive | Sensitive | Molecular Antibiotic Susceptibility Result [2, 3]: Sensitive (Antimicrobial wells with pathogen load detected below the control wells (typically >2 cycle thresholds later) may be reported as Sensitive); Ct [2, 19]: 27.07; Molecular Antibiotic Susceptibility Result [2, 5]: Sensitive (Antimicrobial wells with pathogen load detected below the control wells (typically >2 cycle thresholds later) may be reported as Sensitive); Ct [2, 20]: 30.723; Molecular Antibiotic Susceptibility Result [2, 7]: Sensitive (Antimicrobial wells with pathogen load detected below the control wells (typically >2 cycle thresholds later) may be reported as Sensitive); Ct [2, 21]: 33.144; Molecular Antibiotic Susceptibility Result [2, 9]: Sensitive (Antimicrobial wells with pathogen load detected below the control wells (typically >2 cycle thresholds later) may be reported as Sensitive); Ct [2, 22]: 31.816; Molecular Antibiotic Susceptibility Result [2, 11]: Sensitive (Antimicrobial wells with pathogen load detected below the control wells (typically >2 cycle thresholds later) may be reported as Sensitive); Ct [2, 23]: 37.898; Molecular Antibiotic Susceptibility Result [2, 13]: Sensitive (Antimicrobial wells with pathogen load detected below the control wells (typically >2 cycle thresholds later) may be reported as Sensitive); Ct [2, 24]: 36.672; Molecular Antibiotic Susceptibility Result [2, 15]: Sensitive (Antimicrobial wells with pathogen load detected below the control wells (typically >2 cycle thresholds later) may be reported as Sensitive); Ct [2, 25]: 34.223; Molecular Antibiotic Susceptibility Result [2, 17]: Sensitive (Antimicrobial wells with pathogen load detected below the control wells (typically >2 cycle thresholds later) may be reported as Sensitive); Ct [2, 26]: 35.503
2 | Ampicillin/Sulbactam | Resistant | 13.482 | Sensitive (Antimicrobial wells with pathogen load detected below the control wells (typically >2 cycle thresholds later) may be reported as Sensitive) | 27.583 | Sensitive (Antimicrobial wells with pathogen load detected below the control wells (typically >2 cycle thresholds later) may be reported as Sensitive) | 29.276 | Resistant | 15.608 | Sensitive (Antimicrobial wells with pathogen load detected below the control wells (typically >2 cycle thresholds later) may be reported as Sensitive) | 26.942 | Sensitive (Antimicrobial wells with pathogen load detected below the control wells (typically >2 cycle thresholds later) may be reported as Sensitive) | 32.39 | Sensitive (Antimicrobial wells with pathogen load detected below the control wells (typically >2 cycle thresholds later) may be reported as Sensitive) | 28.121 | Sensitive (Antimicrobial wells with pathogen load detected below the control wells (typically >2 cycle thresholds later) may be reported as Sensitive) | 30.953 | Resistant | Resistant | Resistant | Resistant | Molecular Antibiotic Susceptibility Result [2, 3]: Resistant; Ct [2, 19]: 17.123; Molecular Antibiotic Susceptibility Result [2, 5]: Sensitive (Antimicrobial wells with pathogen load detected below the control wells (typically >2 cycle thresholds later) may be reported as Sensitive); Ct [2, 20]: 29.662; Molecular Antibiotic Susceptibility Result [2, 7]: Sensitive (Antimicrobial wells with pathogen load detected below the control wells (typically >2 cycle thresholds later) may be reported as Sensitive); Ct [2, 21]: 31.018; Molecular Antibiotic Susceptibility Result [2, 9]: Resistant; Ct [2, 22]: 23.602; Molecular Antibiotic Susceptibility Result [2, 11]: Sensitive (Antimicrobial wells with pathogen load detected below the control wells (typically >2 cycle thresholds later) may be reported as Sensitive); Ct [2, 23]: 37.093; Molecular Antibiotic Susceptibility Result [2, 13]: Sensitive (Antimicrobial wells with pathogen load detected below the control wells (typically >2 cycle thresholds later) may be reported as Sensitive); Ct [2, 24]: Undet; Molecular Antibiotic Susceptibility Result [2, 15]: Sensitive (Antimicrobial wells with pathogen load detected below the control wells (typically >2 cycle thresholds later) may be reported as Sensitive); Ct [2, 25]: 33.809; Molecular Antibiotic Susceptibility Result [2, 17]: Sensitive (Antimicrobial wells with pathogen load detected below the control wells (typically >2 cycle thresholds later) may be reported as Sensitive); Ct [2, 26]: 36.062
